Source: ChEMBL document CHEMBL1141696 (Bioorg Med Chem Lett, 2008)

Assays:
[1] = Binding affinity to delta opioid receptor in guinea pig forebrain; parameters: species or system Cavia porcellus
Mus musculus = experiment: Antinociceptive activity in sc dosed mouse assessed as attenuation of acetic acid-induced writhing per 10 mins; format: functional

Compound | Ki [1] [µM] | Activity (Mus musculus) | ED50 (Mus musculus) [mg/kg]
O=C1CC[C@@]2(O)[C@H]3Cc4ccc(O)c5c4[C@@]2(CCN3CC2CC2)[C@H]1O5 [NALTREXONE] | 0.0207 | – | –
CC(C)CN1CC[C@]23c4c5ccc(O)c4O[C@H]2C(=O)CC[C@@]3(O)[C@H]1C5 | 0.229 | Dose-dependent effect | 5.05
